According to paper PMC6409966 (2019):

System: thiolated MG binding aptamer (RNA, aptamer) GGAUCCCGACUGGCGAGAGCCAGGUAACGAAUGGAUCC
Assay: cyclic voltammetry / DPV of captured MG on aptamer electrode; EIS
Conditions: Na+ / K+ (Na2HPO4/KH2PO4 buffer); phosphate buffer pH 7.4, room temperature, 2 h; 1.0 and 10 μM MG; immobilised aptamer

binding: yes
Structure (SMILES): CN(C)c1ccc(C(=C2C=CC(=[N+](C)C)C=C2)c2ccccc2)cc1
